Test results reported in the supplement of paper PMC10307832.

Legend:
Crenolanib = compound: CC1(COc2ccc3c(c2)ncn3-c2ccc3cccc(N4CCC(N)CC4)c3n2)COC1 [Crenolanib]; assay: relative viability (nuclei count vs DMSO), 5 days (fraction); higher = more cells survive
Summary of the method: (§1)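 Nuclei counted with MetaXpress define viability as the ratio of treated to vehicle wells, given as a median across plates. The lung cancer cell lines were in 1536-well plates, pinned with five √10-spaced library-drug doses and imaged at 4× after 5 days and Hoechst staining. Plates passed with control CV below 25% and at least one doubling.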

Tivantinib = compound: O=C1NC(=O)[C@@H](c2cn3c4c(cccc24)CCC3)[C@@H]1c1c[nH]c2ccccc12 [Tivantinib]; assay: as above
Summary of the method: as §1

| Cell Line | relative viability (Crenolanib; 0.01 µM) | relative viability (Crenolanib; 0.03162 µM) | relative viability (Crenolanib; 0.1 µM) | relative viability (Crenolanib; 0.3162 µM) | relative viability (Crenolanib; 1 µM) | relative viability (Tivantinib; 0.01 µM) | relative viability (Tivantinib; 0.03162 µM) | relative viability (Tivantinib; 0.1 µM) | relative viability (Tivantinib; 0.3162 µM) |
| --- | --- | --- | --- | --- | --- | --- | --- | --- | --- |
| NCI-H647 | 0.983 | 0.915 | 0.973 | 1 | 0.929 | 1.06 | 0.992 | 0.881 | 0.946 |
| NCI-H650 | 0.999 | 0.798 | 0.963 | 0.868 | 0.887 | 0.98 | 0.671 | 0.896 | 0.943 |
| NCI-H661 | 0.962 | 1 | 1.02 | 1.04 | 1.01 | 1.07 | 0.971 | 0.956 | 0.811 |
| NCI-H727 | 0.949 | 1.05 | 0.873 | 0.943 | 0.909 | 0.941 | 0.897 | 0.802 | 0.631 |
| NCI-H838 | 1.03 | 0.975 | 0.946 | 0.964 | 0.749 | 0.952 | 0.962 | 0.798 | 0.932 |
| NCI-H1299 | 1.01 | 0.995 | 0.982 | 1.02 | 0.997 | 0.998 | 0.986 | 0.998 | 1.03 |
| NCI-H1355 | 1.07 | 0.994 | 0.955 | 1.03 | 0.856 | 1.01 | 0.921 | 0.973 | 1.01 |
| NCI-H1395 | 0.983 | 0.778 | 0.975 | 0.795 | 0.853 | 1.07 | 1.08 | 0.907 | 0.924 |
| NCI-H1437 | 0.983 | 1 | 0.977 | 1.04 | 1.02 | 0.993 | 0.984 | 0.908 | 0.989 |
| NCI-H1563 | 1.02 | 0.877 | 1 | 0.952 | 0.928 | 1.03 | 0.988 | 0.841 | 0.822 |
| NCI-H1623 | 1.08 | 0.968 | 0.876 | 1.01 | 0.94 | 0.978 | 0.961 | 0.911 | – |
| NCI-H1648 | 0.878 | 0.605 | 0.871 | 0.865 | 1.07 | 0.818 | 0.863 | 0.984 | 0.323 |
| NCI-H1650 | 0.927 | 0.955 | 1.03 | 0.867 | 0.876 | 0.956 | 0.813 | 0.829 | 0.849 |
| NCI-H1651 | 0.952 | 0.928 | 0.958 | 0.989 | 0.932 | 1.02 | 0.938 | 0.874 | 0.971 |
| NCI-H1666 | 1.05 | 0.974 | 0.951 | 1.04 | 0.965 | 1.01 | 0.952 | 0.977 | 0.83 |
| NCI-H1703 | 0.948 | 0.759 | 0.534 | 0.313 | 0.21 | 1.22 | 0.923 | 0.895 | 0.795 |
| NCI-H1734 | 0.947 | 1.02 | 0.988 | 1.02 | 0.916 | 0.946 | 0.878 | 1.08 | 1.01 |
| NCI-H1755 | 0.965 | 1.03 | 0.989 | 1.03 | 0.959 | 1.05 | 0.991 | 0.956 | 1.09 |
| NCI-H1792 | 1.15 | 0.777 | 0.82 | 0.858 | 0.784 | 0.849 | 0.842 | 0.935 | 1.08 |

| Cell Line | relative viability (Crenolanib; 0.01 µM) | relative viability (Crenolanib; 0.03162 µM) | relative viability (Crenolanib; 0.1 µM) | relative viability (Crenolanib; 0.3162 µM) | relative viability (Crenolanib; 1 µM) | relative viability (Tivantinib; 0.01 µM) | relative viability (Tivantinib; 0.03162 µM) | relative viability (Tivantinib; 0.1 µM) | relative viability (Tivantinib; 0.3162 µM) |
| --- | --- | --- | --- | --- | --- | --- | --- | --- | --- |
| NCI-H1793 | 0.909 | 1.02 | 0.811 | 1.07 | 0.88 | 0.923 | 0.98 | 0.837 | 0.61 |
| NCI-H1915 | 0.969 | 1 | 1.02 | 1.01 | 0.779 | 0.986 | 0.912 | 0.977 | 1.06 |
| NCI-H1944 | 1.06 | 0.934 | 0.964 | 0.985 | 0.773 | 0.922 | 0.875 | 0.882 | 0.717 |
| NCI-H1975 | 1.1 | 0.977 | 0.907 | 0.887 | 0.838 | 1.02 | 0.956 | 0.837 | 0.825 |
| NCI-H1993 | 0.985 | 0.889 | 0.919 | 1.06 | 0.925 | 1 | 0.897 | 0.927 | 0.721 |
| NCI-H2009 | 1.05 | 1.02 | 0.991 | 0.991 | 0.89 | 0.985 | 0.954 | 0.967 | 1.07 |
| NCI-H2023 | 1.1 | 1.03 | 0.952 | 1.17 | 0.785 | 1.02 | 0.859 | 0.856 | 0.824 |
| NCI-H2085 | 1 | 1.01 | 0.948 | 0.997 | 0.978 | 1.03 | 0.981 | 0.974 | 0.905 |
| NCI-H2087 | 0.938 | 1.04 | 0.88 | 1.05 | 0.967 | 1.11 | 0.936 | 0.95 | 1.06 |
| NCI-H2126 | 1.03 | 1.05 | 0.937 | 0.987 | 0.928 | 0.959 | 0.945 | 0.989 | 0.869 |
| NCI-H2170 | 0.998 | 1.04 | 0.943 | 1.01 | 1.01 | 1.01 | 0.922 | 0.921 | – |
| NCI-H2228 | 0.944 | 1 | 0.871 | 1.11 | 1.1 | 1.03 | 0.893 | 0.931 | 0.815 |
| NCI-H2342 | 1.07 | 0.844 | 0.924 | 1.09 | 0.968 | 1.1 | 0.983 | 0.934 | 0.815 |
| NCI-H2347 | 1.08 | 0.934 | 0.758 | 1.1 | 1.03 | 1.16 | 0.988 | 1.02 | 1.07 |
| NCI-H2405 | 0.999 | 0.885 | 0.81 | 1 | 0.871 | 1.07 | 1.01 | 0.983 | 1.03 |
| NCI-H3122 | 1.02 | 0.989 | 0.98 | 1.1 | 1.1 | 0.986 | 1 | 0.923 | 0.877 |
| PC-3 [JPC-3] | 1.08 | 1.01 | 0.93 | 1.06 | 0.977 | 1.04 | 1.13 | 1.08 | 0.697 |
| PC-14 | 1.13 | 0.92 | 0.997 | 1.02 | 0.821 | 0.946 | 0.985 | 0.99 | 0.773 |
